PMC10999543, “Identification of kinase modulators as host-directed therapeutics against intracellular methicillin-resistant Staphylococcus aureus” (Frontiers in Cellular and Infection Microbiology, 2024)
Where two headings read alike, the source gives them in different places.

Key:
intracellular MRSA = format: cell-based, Staphylococcus aureus; conditions: for %GFP+ rep 1 / z-scoreMRSA+ rep 1: replicate 1; for %GFP+ rep 2 / z-scoreMRSA+ rep 2: replicate 2; for %GFP+ rep 3 / z-scoreMRSA+ rep 3: replicate 3; for z-scoreMRSA+ mean: mean of 3 replicates; for %GFP+ rep 1: test concentration or dose not given here; for %GFP+ rep 2: test concentration or dose not given here; for %GFP+ rep 3: test concentration or dose not given here; for effect: test concentration or dose not given here; for z-scoreMRSA+ mean: test concentration or dose not given here; for z-scoreMRSA+ rep 1: test concentration or dose not given here; for z-scoreMRSA+ rep 2: test concentration or dose not given here; for z-scoreMRSA+ rep 3: test concentration or dose not given here
Procedure, shortened: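 Values are z-scores: GFP-positive HeLa percentage and event count per well against plate statistics, minus the mean DMSO z-score. Wells deviating two-fold from controls were left out of plate means. Infection was at a mean MOI of 6.8, with an overnight compound exposure.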

HeLa cells = assay: Compound screen by flow cytometry: HeLa cell count as surrogate readout of cell viability (z-scoreHeLa); format: cell-based, human; conditions: for cell count rep 1 / z-scoreHeLa rep 1: replicate 1; for cell count rep 2 / z-scoreHeLa rep 2: replicate 2; for cell count rep 3 / z-scoreHeLa rep 3: replicate 3; for z-scoreHeLa mean: mean of 3 replicates; for all read-outs here: test concentration or dose not given here
Procedure, shortened: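 The viability surrogate was the count of fixed HeLa cells by flow cytometry, converted to z-scores against DMSO controls with values deviating two-fold excluded. Before counting, cells had been infected with MRSA for 1 h and cleared of extracellular bacteria with gentamicin. They were then exposed overnight to kinase inhibitors in triplicate.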

[1] = PKIS compounds raw data, MRSA-infected HeLa cells
[2] = Yes/No: effect without cell death
[3] = compound screen, MRSA-infected HeLa cells
[4] = PKIS compounds raw data, HeLa cell count
[5] = compound screen, HeLa cell count
[6] = PKIS compound screen, Yes/No call
[7] = PKIS compound screen, Yes/No call (effect without cell death)
[8] = PKIS compound screen raw data, MRSA-infected HeLa cells
[9] = PKIS compound screen raw data, HeLa cell count
[10] = PKIS compound screen, MRSA-infected HeLa cells
[11] = PKIS compound screen, HeLa cell count

With Fc1cccc(COc2ccc(Nc3ncnc4sc(-c5ccc[nH]5)cc34)cc2Cl)c1 [GW707818B] the “%GFP+ rep 1” value (intracellular MRSA; [1]) was 24.9%, the “%GFP+ rep 2” value (intracellular MRSA; [1]) was 22.3% and the “%GFP+ rep 3” value (intracellular MRSA; [1]) was 25.1%. The effect (intracellular MRSA; Yes/No call from z-scoreMRSA+) was “No”, the hit (intracellular MRSA; [2]) was “No” and the “z-scoreMRSA+ mean” value (intracellular MRSA; [3]) was 0.24. For the same molecule, the “z-scoreMRSA+ rep 1” value (intracellular MRSA; [3]) was -0.09, the “z-scoreMRSA+ rep 2” value (intracellular MRSA; [3]) was -0.0758 and the “z-scoreMRSA+ rep 3” value (intracellular MRSA; [3]) was 0.87. The “cell count rep 1” value (HeLa cells; [4]) was 5915, the “cell count rep 2” value (HeLa cells; [4]) was 6344 and the “cell count rep 3” value (HeLa cells; [4]) was 7651. The cell death (HeLa cells; Yes/No call from z-scoreHeLa) was “No”, the z-scoreHeLa mean (HeLa cells; [5]) was 1.41 and the “z-scoreHeLa rep 1” value (HeLa cells; [5]) was 1.13. For the same molecule, the “z-scoreHeLa rep 2” value (HeLa cells; [5]) was 1.57 and the “z-scoreHeLa rep 3” value (HeLa cells; [5]) was 1.52.

With Cc1nnc(-c2ccc(C)c(-c3ccc(C(=O)NCc4ccc(Cl)cc4)cc3)c2)o1 [GW708893X] the effect (intracellular MRSA; [6]) was “No”, the hit (intracellular MRSA; [7]) was “No” and the “z-scoreMRSA+ mean” value (intracellular MRSA; PKIS compound screen) was 0.76. For the same molecule, the “z-scoreMRSA+ rep 1” value (intracellular MRSA; PKIS compound screen) was 0.91, the “z-scoreMRSA+ rep 2” value (intracellular MRSA; PKIS compound screen) was 1.61 and the “z-scoreMRSA+ rep 3” value (intracellular MRSA; PKIS compound screen) was -0.23. For the same molecule, the “%GFP+ rep 1” value (intracellular MRSA; [1]) was 16.0%, the “%GFP+ rep 2” value (intracellular MRSA; [1]) was 18.3% and the “%GFP+ rep 3” value (intracellular MRSA; [1]) was 15.1%. For the same molecule, the cell death (HeLa cells; [6]) was “No”, the z-scoreHeLa mean (HeLa cells; PKIS compound screen) was 0.63 and the “z-scoreHeLa rep 1” value (HeLa cells; PKIS compound screen) was 0.34. For the same molecule, the “z-scoreHeLa rep 2” value (HeLa cells; PKIS compound screen) was 1.23, the “z-scoreHeLa rep 3” value (HeLa cells; PKIS compound screen) was 0.31 and the “cell count rep 1” value (HeLa cells; [4]) was 5153. For the same molecule, the “cell count rep 2” value (HeLa cells; [4]) was 5899 and the “cell count rep 3” value (HeLa cells; [4]) was 7607.

With c1ccc(-c2n[nH]cc2-c2ccnc(-c3ccc(CNC4CCOCC4)cc3)c2)nc1 [GW709213X] the “%GFP+ rep 1” value (intracellular MRSA; [8]) was 20.2%, the “%GFP+ rep 2” value (intracellular MRSA; [8]) was 23.4% and the “%GFP+ rep 3” value (intracellular MRSA; [8]) was 24.6%. The effect (intracellular MRSA; Yes/No call from z-scoreMRSA+) was “No”, the hit (intracellular MRSA; [2]) was “No” and the “z-scoreMRSA+ mean” value (intracellular MRSA; [3]) was 0.80. For the same molecule, the “z-scoreMRSA+ rep 1” value (intracellular MRSA; [3]) was 0.38, the “z-scoreMRSA+ rep 2” value (intracellular MRSA; [3]) was 1.09 and the “z-scoreMRSA+ rep 3” value (intracellular MRSA; [3]) was 0.92. For the same molecule, the “cell count rep 1” value (HeLa cells; [9]) was 27129, the “cell count rep 2” value (HeLa cells; [9]) was 33773 and the “cell count rep 3” value (HeLa cells; [9]) was 22823. For the same molecule, the cell death (HeLa cells; Yes/No call from z-scoreHeLa) was “No”, the z-scoreHeLa mean (HeLa cells; [5]) was 0.57 and the “z-scoreHeLa rep 1” value (HeLa cells; [5]) was -0.52. The “z-scoreHeLa rep 2” value (HeLa cells; [5]) was 1.46 and the “z-scoreHeLa rep 3” value (HeLa cells; [5]) was 0.76.

With COc1ccc(-c2oc3ncnc(N)c3c2-c2ccc(NC(=O)Nc3cc(C(F)(F)F)ccc3F)cc2)cc1 [GW768505A] the “%GFP+ rep 1” value (intracellular MRSA; [1]) was 11.3%, the “%GFP+ rep 2” value (intracellular MRSA; [1]) was 13.4% and the “%GFP+ rep 3” value (intracellular MRSA; [1]) was 12.4%. For the same molecule, the effect (intracellular MRSA; Yes/No call from z-scoreMRSA+) was “No”, the hit (intracellular MRSA; [2]) was “No” and the “z-scoreMRSA+ mean” value (intracellular MRSA; [3]) was -0.55. For the same molecule, the “z-scoreMRSA+ rep 1” value (intracellular MRSA; [3]) was -0.60, the “z-scoreMRSA+ rep 2” value (intracellular MRSA; [3]) was -0.0319 and the “z-scoreMRSA+ rep 3” value (intracellular MRSA; [3]) was -1.03. The “cell count rep 1” value (HeLa cells; [4]) was 2576, the “cell count rep 2” value (HeLa cells; [4]) was 4064 and the “cell count rep 3” value (HeLa cells; [4]) was 5860. For the same molecule, the cell death (HeLa cells; Yes/No call from z-scoreHeLa) was “No”, the z-scoreHeLa mean (HeLa cells; [5]) was -0.89 and the “z-scoreHeLa rep 1” value (HeLa cells; [5]) was -1.99. For the same molecule, the “z-scoreHeLa rep 2” value (HeLa cells; [5]) was -0.15 and the “z-scoreHeLa rep 3” value (HeLa cells; [5]) was -0.53.

Nc1ncnc2occ(-c3ccc(NC(=O)Nc4cc(C(F)(F)F)ccc4F)cc3)c12 [GW770249X] was tested, and the “%GFP+ rep 1” value (intracellular MRSA; [1]) was 10.7%, the “%GFP+ rep 2” value (intracellular MRSA; [1]) was 11.5% and the “%GFP+ rep 3” value (intracellular MRSA; [1]) was 11.5%. The effect (intracellular MRSA; Yes/No call from z-scoreMRSA+) was “No”, the hit (intracellular MRSA; [2]) was “No” and the “z-scoreMRSA+ mean” value (intracellular MRSA; [3]) was -0.92. The “z-scoreMRSA+ rep 1” value (intracellular MRSA; [3]) was -0.79, the “z-scoreMRSA+ rep 2” value (intracellular MRSA; [3]) was -0.67 and the “z-scoreMRSA+ rep 3” value (intracellular MRSA; [3]) was -1.30. For the same molecule, the “cell count rep 1” value (HeLa cells; [4]) was 2336, the “cell count rep 2” value (HeLa cells; [4]) was 2249 and the “cell count rep 3” value (HeLa cells; [4]) was 3259. The cell death (HeLa cells; Yes/No call from z-scoreHeLa) was “No”, the z-scoreHeLa mean (HeLa cells; [5]) was -1.83 and the “z-scoreHeLa rep 1” value (HeLa cells; [5]) was -2.21. The “z-scoreHeLa rep 2” value (HeLa cells; [5]) was -1.53 and the “z-scoreHeLa rep 3” value (HeLa cells; [5]) was -1.77.

With Cc1c2ccc(N(C)c3ccnc(Nc4cccc(S(N)(=O)=O)c4)n3)cc2nn1C [GW771127A] the “%GFP+ rep 1” value (intracellular MRSA; [8]) was 14.2%, the “%GFP+ rep 2” value (intracellular MRSA; [8]) was 13.8% and the “%GFP+ rep 3” value (intracellular MRSA; [8]) was 15.3%. For the same molecule, the “z-scoreMRSA+ mean” value (intracellular MRSA; [10]) was -1.32, the “z-scoreMRSA+ rep 1” value (intracellular MRSA; [10]) was -1.16 and the “z-scoreMRSA+ rep 2” value (intracellular MRSA; [10]) was -1.42. For the same molecule, the “z-scoreMRSA+ rep 3” value (intracellular MRSA; [10]) was -1.37, the hit (intracellular MRSA; [7]) was “No” and the effect (intracellular MRSA; PKIS compound screen, Yes/No call on z-scoreMRSA+) was “No”. The “cell count rep 1” value (HeLa cells; [9]) was 10020, the “cell count rep 2” value (HeLa cells; [9]) was 29599 and the “cell count rep 3” value (HeLa cells; [9]) was 33795. The z-scoreHeLa mean (HeLa cells; [11]) was -1.19, the “z-scoreHeLa rep 1” value (HeLa cells; [11]) was -1.53 and the “z-scoreHeLa rep 2” value (HeLa cells; [11]) was -0.97. For the same molecule, the “z-scoreHeLa rep 3” value (HeLa cells; [11]) was -1.07 and the cell death (HeLa cells; PKIS compound screen, Yes/No call on z-scoreHeLa) was “No”.
